According to PMC3914206:
“And” between values parts separate entries of the source, which are not always exact repeats. Identical values can stand only once.

How the values were obtained:
panel of 442 kinases = target: T1, panel of 442 kinases (Homo sapiens, UniProt Q5S007); assay type: binding; conditions: Compound Concentration 10 µM
T1 construct: purchased KINOMEscan
Excerpt: We assessed the selectivity of members of this scaffold using the KINOMEscan methodology across a near comprehensive panel of 442 kinases [[18,27]].

LRRK2[A2016T] = LRRK2[A2016T] (Homo sapiens, UniProt Q5S007, A2016T); experiment: LRRK2 cellular assay, Ser910/Ser935 phosphorylation in stably transfected HEK293 cells; conditions: drug-resistant mutant, up to 3 μM
Sequence of LRRK2[A2016T] (Q5S007 whole entry A2016T): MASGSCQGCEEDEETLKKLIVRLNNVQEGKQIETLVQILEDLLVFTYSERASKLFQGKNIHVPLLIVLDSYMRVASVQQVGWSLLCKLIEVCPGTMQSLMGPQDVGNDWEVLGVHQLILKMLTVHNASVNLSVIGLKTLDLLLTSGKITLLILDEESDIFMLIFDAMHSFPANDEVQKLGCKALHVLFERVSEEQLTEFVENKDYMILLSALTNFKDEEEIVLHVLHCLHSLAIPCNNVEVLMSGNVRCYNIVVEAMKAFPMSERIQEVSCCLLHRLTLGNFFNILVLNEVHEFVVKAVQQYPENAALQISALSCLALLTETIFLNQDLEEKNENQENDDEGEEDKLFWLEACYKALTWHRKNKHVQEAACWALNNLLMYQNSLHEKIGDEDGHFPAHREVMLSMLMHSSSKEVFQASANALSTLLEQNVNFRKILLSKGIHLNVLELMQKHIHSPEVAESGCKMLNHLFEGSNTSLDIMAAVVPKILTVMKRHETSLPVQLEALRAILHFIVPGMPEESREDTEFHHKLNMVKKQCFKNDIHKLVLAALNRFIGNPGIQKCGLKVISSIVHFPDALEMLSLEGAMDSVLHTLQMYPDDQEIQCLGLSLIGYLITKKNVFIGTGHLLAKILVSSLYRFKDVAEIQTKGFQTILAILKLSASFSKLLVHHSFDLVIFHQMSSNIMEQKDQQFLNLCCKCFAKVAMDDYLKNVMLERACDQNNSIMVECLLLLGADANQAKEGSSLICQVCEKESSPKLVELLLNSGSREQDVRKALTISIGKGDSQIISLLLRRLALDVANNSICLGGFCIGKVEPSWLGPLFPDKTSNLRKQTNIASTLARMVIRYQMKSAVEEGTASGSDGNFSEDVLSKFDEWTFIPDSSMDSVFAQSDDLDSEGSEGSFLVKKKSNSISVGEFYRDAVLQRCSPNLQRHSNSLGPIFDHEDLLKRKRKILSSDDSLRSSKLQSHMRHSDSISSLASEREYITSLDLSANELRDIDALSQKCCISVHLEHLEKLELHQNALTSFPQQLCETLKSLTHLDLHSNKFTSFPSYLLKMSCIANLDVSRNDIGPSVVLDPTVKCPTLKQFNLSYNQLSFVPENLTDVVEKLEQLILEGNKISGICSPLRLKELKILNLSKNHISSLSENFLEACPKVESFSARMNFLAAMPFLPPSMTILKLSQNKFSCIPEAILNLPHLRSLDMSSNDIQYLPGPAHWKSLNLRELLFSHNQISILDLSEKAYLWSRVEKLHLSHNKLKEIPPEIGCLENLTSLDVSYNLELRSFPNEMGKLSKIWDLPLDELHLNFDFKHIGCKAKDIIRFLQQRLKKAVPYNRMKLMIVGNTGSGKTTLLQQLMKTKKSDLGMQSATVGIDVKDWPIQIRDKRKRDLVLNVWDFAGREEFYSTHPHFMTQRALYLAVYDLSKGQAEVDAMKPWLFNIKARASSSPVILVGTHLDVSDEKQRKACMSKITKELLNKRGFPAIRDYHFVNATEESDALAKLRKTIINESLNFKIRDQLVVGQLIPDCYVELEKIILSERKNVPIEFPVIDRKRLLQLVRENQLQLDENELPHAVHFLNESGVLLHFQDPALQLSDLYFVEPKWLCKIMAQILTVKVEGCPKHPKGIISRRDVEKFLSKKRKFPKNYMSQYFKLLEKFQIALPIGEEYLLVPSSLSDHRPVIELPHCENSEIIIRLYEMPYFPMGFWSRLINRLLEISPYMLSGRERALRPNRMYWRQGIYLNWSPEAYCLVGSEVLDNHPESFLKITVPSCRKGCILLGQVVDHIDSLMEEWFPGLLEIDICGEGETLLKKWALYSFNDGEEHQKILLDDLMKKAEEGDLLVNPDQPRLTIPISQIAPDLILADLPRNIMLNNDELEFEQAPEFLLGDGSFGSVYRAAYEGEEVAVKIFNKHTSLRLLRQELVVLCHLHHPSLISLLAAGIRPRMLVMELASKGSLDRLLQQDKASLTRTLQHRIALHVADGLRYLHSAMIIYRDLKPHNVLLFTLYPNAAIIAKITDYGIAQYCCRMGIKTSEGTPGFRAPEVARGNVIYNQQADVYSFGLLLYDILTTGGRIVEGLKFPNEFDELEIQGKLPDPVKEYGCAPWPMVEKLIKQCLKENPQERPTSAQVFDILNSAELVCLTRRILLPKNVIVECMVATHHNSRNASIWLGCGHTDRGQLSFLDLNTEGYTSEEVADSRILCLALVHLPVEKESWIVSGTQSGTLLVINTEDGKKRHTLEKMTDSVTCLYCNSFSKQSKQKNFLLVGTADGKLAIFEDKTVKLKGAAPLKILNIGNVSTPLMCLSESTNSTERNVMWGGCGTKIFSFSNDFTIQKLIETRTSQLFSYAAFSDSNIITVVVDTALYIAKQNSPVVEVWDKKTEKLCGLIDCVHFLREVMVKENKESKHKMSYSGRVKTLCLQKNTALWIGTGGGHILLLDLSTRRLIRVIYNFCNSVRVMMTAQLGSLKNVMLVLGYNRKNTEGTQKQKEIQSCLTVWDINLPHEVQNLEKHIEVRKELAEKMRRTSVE
Procedure: (§1) Our cellular assay for LRRK2 measures the ability of compounds to inhibit LRRK2-dependent phosphorylation of Ser910 and Ser935 in stably transformed HEK293 cells as described previously [[21,25]].
(§2) As there are no validated direct phosphorylation substrates of LRRK2, we monitored phosphorylation of Ser910 and Ser935, two residues whose phosphorylation is known to be dependent upon LRRK2 kinase activity [25]
(§3) Cell culture, treatments and cell lysis. HEK293 was cultured in DMEM (Dulbecco's Modified Eagle's medium) supplemented with 10% FBS (fetal bovine serum), 2 mM glutamine and 1× penicillin/streptomycin solution. […] Following treatment, cells were washed once with phosphate buffered saline (PBS) buffer and lysed with lysis buffer (50 mM Tris/HCl, pH 7.5, 1 mM EGTA, 1 mM EDTA, 1 mM sodium orthovanadate, 10 mM sodium β-glycerophosphate, 50 mM NaF, 5 mM sodium pyrophosphate, 0.27 M sucrose, 1 mM benzamidine, 2 mM phenylmethanesulphonylfluoride (PMSF) and 1% Triton X-100). When not used immediately, all lysate supernatants were snap-frozen in liquid nitrogen and stored at −80 °C until use. Protein concentrations were determined following centrifugation of the lysate at 16,000× g at 4 °C for 20 min using the Bradford method with BSA as the standard. Transient transfection of HEK 293 cells was performed using the polyethyleneimine (PEI) method [35]. […]

ERK5 = ERK5 (Homo sapiens, UniProt Q13164); experiment: ERK5 autophosphorylation assay (EGF-stimulated, mobility shift immunoblot); assay type: cell-based; design: endogenous in cells; host or cells: HeLa; conditions: inhibition of EGF-stimulated autophosphorylation of ERK5 in HeLa cells; read-out: Cellular EC50 (ERK5)
Sequence of ERK5 (Q13164 whole entry): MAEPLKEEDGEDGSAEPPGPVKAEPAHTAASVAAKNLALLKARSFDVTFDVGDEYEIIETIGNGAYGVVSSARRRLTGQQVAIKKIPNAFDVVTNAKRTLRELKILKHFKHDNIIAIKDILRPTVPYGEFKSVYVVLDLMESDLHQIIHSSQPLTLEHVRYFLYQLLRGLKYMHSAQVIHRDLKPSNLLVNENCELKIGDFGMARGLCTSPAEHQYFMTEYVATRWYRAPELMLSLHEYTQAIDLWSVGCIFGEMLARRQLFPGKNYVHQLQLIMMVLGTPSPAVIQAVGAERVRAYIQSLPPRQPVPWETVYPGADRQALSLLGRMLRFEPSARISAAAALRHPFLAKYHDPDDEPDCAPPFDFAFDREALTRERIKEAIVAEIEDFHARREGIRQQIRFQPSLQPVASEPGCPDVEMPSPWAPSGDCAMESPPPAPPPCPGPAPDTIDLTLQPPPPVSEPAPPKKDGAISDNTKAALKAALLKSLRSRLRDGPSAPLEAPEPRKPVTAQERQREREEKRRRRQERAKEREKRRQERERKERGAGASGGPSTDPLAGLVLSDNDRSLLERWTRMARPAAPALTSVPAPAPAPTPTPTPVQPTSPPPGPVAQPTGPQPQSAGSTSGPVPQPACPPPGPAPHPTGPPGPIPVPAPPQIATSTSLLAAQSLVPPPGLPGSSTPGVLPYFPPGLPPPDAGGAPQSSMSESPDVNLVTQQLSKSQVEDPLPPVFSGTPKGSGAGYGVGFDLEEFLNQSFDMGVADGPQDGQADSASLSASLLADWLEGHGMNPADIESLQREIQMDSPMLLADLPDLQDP
Excerpt: Proteins from total cell lysates were resolved by 6% sodium dodecyl sulfate (SDS)-poly-acrylamide gel electrophoresis (PAGE), transferred to nitrocellulose membrane, blocked in 5% nonfat milk, and blotted with anti-ERK5 antibody.

endogenous LRRK2 = assay type: cell-based; conditions: EBV immortalized human lymphoblastoid cells, 90 min
[1] = Pharmacokinetics after intravenous and oral delivery in mice; assay type: in vivo
Procedure: The pharmacokinetic properties of 26 were also evaluated following intravenous and oral delivery in mice.

wild-type LRRK2 = wild-type LRRK2 (Homo sapiens, UniProt Q5S007); experiment: LRRK2 cellular assay, Ser910/Ser935 phosphorylation in stably transfected HEK293 cells; conditions: up to 3 μM, 90 min
Sequence of wild-type LRRK2 (Q5S007 whole entry): as the sequence (Q5S007 whole entry A2016T) above, with T2016A counted along it
Procedure: as §1, §2, §3

T1 sequence (Q5S007 whole entry): as the sequence (Q5S007 whole entry A2016T) above, with T2016A counted along it

## COc1cc(C(=O)N2CCC(N3CCN(C)CC3)CC2)ccc1Nc1ncc2c(n1)N(C)c1ccccc1C(=O)N2C [15 (LRRK2-IN-1)]
Panel of 442 kinases
  KINOMEscan: LRRK2: 0

## COc1cc(C(=O)N2CCC(N3CCN(C)CC3)CC2)ccc1Nc1ncc2c(n1)N1CCc3cccc(c31)C(=O)N2C [Compound 24]
LRRK2[A2016T]
  effect on phosphorylation of Ser910 and Ser935: no effect
ERK5
  EC50: 260 ± 40 nM

## COc1cc(C(=O)N2CCC(N3CCN(C)CC3)CC2)ccc1Nc1ncc2c(n1)N(C1CCCC1)c1ccccc1C(=O)N2C [Compound 25, 11-cyclopentyl-2-((2-methoxy-4-(4-(4-methylpiperazin-1-yl)piperidine-1-carbonyl)phenyl)amino)-5-methyl-5H-benzo[e]pyrimido[5,4-b][1,4]diazepin-6(11H)-one]
Panel of 442 kinases
  KINOMEscan: LRRK2: 28
ERK5
  EC50: 80 ± 20 nM

## CCOc1cc(C(=O)N2CCC(N3CCN(C)CC3)CC2)ccc1Nc1ncc2c(n1)N(C1CCCC1)c1ccccc1C(=O)N2C [Compound 26]
Endogenous LRRK2
  effect on phosphorylation of endogenous LRRK2 at Ser910 and Ser935: did not show inhibitory effects
[1]; IV, 1 mg/kg
  AUC0−∞: 1743.83 ng·h/mL
  CL: 8.64 mL/min/kg
  Cmax: 439 ng/mL
  T1/2: 8.2 h
  Vss: 4.67 L/kg
[1]; PO, 10 mg/kg
  AUC0−∞: 15745 ng·h/mL and 15745.48 ng·h/mL
  Cmax: 1142.77 ng/mL
  F (oral bioavailability): 90%
  Tmax: 4.0 H
wild-type LRRK2
  inhibitory effect against LRRK2 in cells (Ser910/Ser935 phosphorylation): did not show any inhibitory effect
